In one data set the test system is P.falciparum. The data set can be described thus: In vitro activity against P.falciparum: inhibition of 3H-adenosine/3H-hypoxanthine incorporation (modified Desjardins). The following applies: naphthoquinone alone. Type of data set: cell-based. As for the experimental part:
Each of the two compounds to be tested were dissolved in ethanol at a concentration of 10 mg/L and serially diluted with RPMI 1640 medium and 10% (v/v) human plasma in microtitration plates. P.falciparum-parasitised and fresh blood cells were added together with ^3 H-adenosine or ^3 H-hypoxanthinein RPMI 1640 medium and 10% human plasma. The cultures were then incubated at 37° C. for 43 hours, harvested and the particulate contents collected on glass fibre filter papers which were washed copiously with water using a Cooke Microtiter System (Dynatech Labs. Europe); the filter papers were dried and the radioactivity measured using a scintillation counter. Infected, untreated and uninfected cultures were included as controls. Percent inhibition was correlated with dose to provide an IC50 for each drug alone.
For subsequent combination experiments the individual drug solutions and mixtures thereof were serially diluted.
By the method of Example 1 the effect of a number of naphthoquinone/clopidol (4-pyridinol) combinations on P.falciparum in vitro were determined.

The nature of a further data set: in vivo. The following applies: rat, acute oral, rats. The method, then:
The acute oral LD50 's of compounds of formula (I) in rats were determined by standard techniques.

Data on one compound can be found in US5053418A, “Antiprotozoal agents” (Burroughs Wellcome Co., priority 1983, dated 1991).

Bounds are passed on as bounds.

The term inhibition denotes the change of the read-out against control, counted positive when it falls. One may read the % inhibition as how much of the control response was suppressed. For orientation: LD50 means the dose at which mortality reaches 50%. Lower therefore signals greater toxicity.

Consider `CC(C)(C)C1CCC(C2=C(O)C(=O)c3ccccc3C2=O)CC1` (stereo not shown) [2-(4-t-butylcyclohexyl)-3-hydroxy-1,4-naphthoquinone], for which, in the data set on P.falciparum (Plasmodium falciparum, 0.0000156 mg/L), the inhibition at 15.6 pg/mL worked out at 0.5%. Further, the inhibition at 32.5 pg/mL with P.falciparum (Plasmodium falciparum, 0.0000325 mg/L) is 2%. For the same compound, the “% inhibition” value with P.falciparum (0.00003125 mg/L) stood at 5%. In “in vivo”, the LD50 was > 1000 mg/kg.
